Laboratory results: US4552882A, “7-(1-Pyrrolyl) derivatives of 1-ethyl-1,4-dihydro-4-oxoquinoline-3-carboxylic acids and 1-ethyl-1,4-dihydro-4-oxo-1,8-naphthyridine-3-carboxylic acids and their use as antimicrobial agents” (Provesan, SA, priority 1983, dated 1985)
Values after ≈ are worked out from the molar mass of the structure shown.

Key:
Test in all cases: MIC in vitro
[1] = test system: Citrobacter freundii ATCC 11606; format: cell-based; settings: ATCC11606, Dextrose agar, 37° C., 20 hours
Experimental: (§1) (G. L. Daquet and Y. A. Chabbect, Techniques en bacteriologie (Bacteriological techniques), vol. 3, Flammarion Medecine Sciences, Paris, 1972 and W. B. Hugo and A. D. Rusell, Pharmaceutical Microbiology, Blackwell Scientific Publications, London, (1977)). Antibiotic medium no. 1 (seed agar) (Oxoid CM 327) Tryptone-soya broth (Oxoid CM 129) Ringer's physiological solution 1/4 (oxoid BR 52) Dextrose agar (BBL-11165) 0.1 N NaOH "Citrobacter freundii" ATCC 11606 Each of the microorganisms is seeded by streaking in tubes of Antibiotic medium No. 1 (seed agar), which are then incubated at 37° C. for 20 hours. Using a culture loop, the cultures are then seeded in tryptone-soyabroth and incubated at 37° C. for 20 hours. The culture obtained is diluted to 1/4 with Ringer's physiological solution, so as to obtain a standardized suspension of 10^7 -10^9 cfu/ml for each organism. Starting from a solution of 1,000 μg/ml in 0.1 N NaOH, each product is diluted in Dextrose agar (previously melted and maintained at 50° C.), with successive dilutions so as to obtain the following concentrations: 64--32--16--8--4--2--1--0.5--0.25--0.125 μg of derivative/ml medium. For each product, the solution of each concentration is subsequently distributed into Petri dishes 10 cm in diameter, with 10 ml of medium per dish and the same number of dishes as microorganisms to be tested. As soon as the medium has cooled, the dishes are seeded with the inoculations using 0.4 ml of inoculation per dish. They are spread with a Driglasky loop and the supernatant is removed. The seeded dishes are incubated at 37° C. for 20 hours.

[2] = test system: Pseudomonas aeruginosa ATCC 25115; format: cell-based; settings: ATCC25115, Dextrose agar, 37° C., 20 hours
Text: as §1, with “"Pseudomonas aeruginosa"” for “"Citrobacter freundii"”, “25115” for “11606”

[3] = test system: Salmonella typhimurius AMES 98; format: cell-based, Salmonella typhimurium; settings: AMES98, Dextrose agar, 37° C., 20 hours
Experimental: (G. L. Daquet and Y. A. Chabbect, Techniques en bacteriologie (Bacteriological techniques), vol. 3, Flammarion Medecine Sciences, Paris, 1972 and W. B. Hugo and A. D. Rusell, Pharmaceutical Microbiology, Blackwell Scientific Publications, London, (1977)).
Antibiotic medium no. 1 (seed agar) (Oxoid CM 327)
Tryptone-soya broth (Oxoid CM 129)
Ringer's physiological solution 1/4 (oxoid BR 52) Dextrose agar (BBL-11165) 0.1 N NaOH
"Salmonella typhimurium" AMES 98
Each of the microorganisms is seeded by streaking in tubes of Antibiotic medium No. 1 (seed agar), which are then incubated at 37° C. for 20 hours. Using a culture loop, the cultures are then seeded in tryptone-soyabroth and incubated at 37° C. for 20 hours. The culture obtained is diluted to 1/4 with Ringer's physiological solution, so as to obtain a standardized suspension of 10^7 -10^9 cfu/ml for each organism.
Starting from a solution of 1,000 μg/ml in 0.1 N NaOH, each product is diluted in Dextrose agar (previously melted and maintained at 50° C.), with successive dilutions so as to obtain the following concentrations: 64--32--16--8--4--2--1--0.5--0.25--0.125 μg of derivative/ml medium.
For each product, the solution of each concentration is subsequently distributed into Petri dishes 10 cm in diameter, with 10 ml of medium per dish and the same number of dishes as microorganisms to be tested.
As soon as the medium has cooled, the dishes are seeded with the inoculations using 0.4 ml of inoculation per dish. They are spread with a Driglasky loop and the supernatant is removed. The seeded dishes are incubated at 37° C. for 20 hours.

Row | SMILES | MIC [1] [µg/mL] | MIC [2] [µg/mL] | MIC [3] [µg/mL]
1 | CCn1cc(C(=O)O)c(=O)c2ccc(-n3cccc3)cc21 [Example 1, 7-(1-pyrrolyl)-1-ethyl-1,4-dihydro-4-oxo-3-quinolinecarboxylic acid] | 16 (≈ 56.7 µM) | > 64 | 0.5 (≈ 1.77 µM)
2 | CCn1cc(C(=O)O)c(=O)c2cc(F)c(-n3cccc3)cc21 [Example 2, 6-fluoro-7-(1-pyrrolyl)-1-ethyl-1,4-dihydro-4-oxo-3-quinolinecarboxylic acid] | 8 (≈ 26.6 µM) | 16 (≈ 53.3 µM) | < 0.125
3 | CCn1cc(C(=O)O)c(=O)c2ccc(-n3cccc3)nc21 [Example 3, 1-ethyl-1,4-dihydro-4-oxo-7-(1-pyrrolyl)-1,8-naphthyridine-3-carboxylic acid] | 32 (≈ 113 µM) | > 64 | 0.5 (≈ 1.76 µM)
4 | CCn1cc(C(=O)O)c(=O)c2cc(F)c(-n3cccc3)nc21 [Example 4, 1-ethyl-1,4-dihydro-4-oxo-6-fluoro-7-(1-pyrrolyl)-1,8-naphthyridine-3-carboxylic acid] | 4 (≈ 13.3 µM) | 32 (≈ 106 µM) | 0.12 (≈ 0.398 µM)
5 | CCn1cc(C(=O)O)c(=O)c2cnc(N3CCNCC3)nc21 [Pipemidic acid, reference compound] | 4 (≈ 13.2 µM) | 32 (≈ 105 µM) | 4 (≈ 13.2 µM)
